In patent US10259796B2, “Oxaspiro[2.5]octane derivatives and analogs” (Zafgen, Inc., priority 2011, dated 2019):
Where two headings read alike, the source gives them in different places.

What was measured:
[1] = target: T1, recombinant human MetAP2 (Homo sapiens, UniProt P50579); assay: MetAP2 enzyme assay (inhibition of recombinant MetAP2, Met-Gly-Met-Met substrate); assay type: biochemical; conditions: 50 nM
T1 construct: made in house; host or cells: High Five insect cells (Bac-to-Bac baculovirus)
Method: Exemplary procedures for expression and purification of MetAP2 are shown in Griffith et al. (PNAS (1998) 95(26):15183-15188). Briefly, recombinant His-tagged human MetAP2 is expressed by using a Bac-to-Bac baculovirus expression system (GIBCO/BRL). Recombinant baculovirus stocks are generated and amplified as per the manufacturer's instructions. Protein is harvested 36 hr after baculovirus infection of two 15-cm plates of High Five cells.
The cell pellet are weighed and lysed (in 5 ml/g of wet pellet) in pre-chilled lysis buffer [buffer B+1% Nonidet P-40/1 mM phenymethylsulfonyl fluoride (PMSF)/2 μg/ml leupeptin/2 μg/ml aprotinin/1 μg/ml pepstatin]. The lysate is incubated on ice for 10 min and centrifuged at 10,000×g for 10 min. […] The Talon resin is pelleted by centrifugation at 1,200×g for 3 min and washed with 4×10 ml of buffer B. During the final wash, the resin is slurried into a Bio-Rad Econo column. The 6×His-tagged MetAP2 is eluted with 6 ml of 50 mM imidazole in buffer B, and 0.5 ml fractions are collected. The amount and purity of recombinant MetAP2 is analyzed by the absorbance at 280 nm and SDS/PAGE (10% gel). The fractions containing the highest amounts of MetAP2 are pooled and dialyzed against 3 liters of buffer B overnight before storage at 4° C.
An enzyme assay is performed in a 96-well format as described in Griffith et al. (PNAS (1998) 95(26):15183-15188). […] To begin the enzymatic reaction, Met-Gly-Met-Met is added to a final concentration of 4 mM and incubated at 37° C. The reaction is quenched after 20 min by adding EDTA to a concentration of 10 mM. Released methionine is quantitated as described in Ben-Bassat et al. (J Bacteriol (1987) 169:751-757).
IC50 values are calculated and compounds herein are determined to be active inhibitors of MetAP2, with some having nanomolar activities.

[2] = Cell Based Assay (inhibition range)
[3] = 4 hr, read-out: MetAP2 Enzyme Assay 4 hr 50 nM
[4] = 1 hr, read-out: MetAP2 Enzyme Assay 1 hr 50 nM
[5] = 2 hr, read-out: MetAP2 Enzyme Assay 2 hr 50 nM

T1 sequence (P50579 whole entry): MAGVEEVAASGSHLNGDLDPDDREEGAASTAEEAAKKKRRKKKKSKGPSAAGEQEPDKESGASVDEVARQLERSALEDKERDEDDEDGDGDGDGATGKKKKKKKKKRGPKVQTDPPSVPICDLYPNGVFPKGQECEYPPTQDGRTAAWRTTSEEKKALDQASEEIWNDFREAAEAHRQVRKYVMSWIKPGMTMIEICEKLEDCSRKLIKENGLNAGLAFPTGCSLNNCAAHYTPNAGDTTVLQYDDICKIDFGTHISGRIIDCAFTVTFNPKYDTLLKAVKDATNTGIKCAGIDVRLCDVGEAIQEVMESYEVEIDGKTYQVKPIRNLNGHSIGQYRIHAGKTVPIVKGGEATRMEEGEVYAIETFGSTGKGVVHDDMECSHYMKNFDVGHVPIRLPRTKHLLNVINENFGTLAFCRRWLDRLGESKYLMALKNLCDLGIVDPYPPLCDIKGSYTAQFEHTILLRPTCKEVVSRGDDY

In the case of `CCCCCCCCCC[S+]([O-])[C@@H]1CC[C@]2(CO2)[C@@H]([C@@]2(C)O[C@@H]2CC=C(C)C)[C@@H]1OC` (stereo partly shown) [Example 31], the inhibition at 0.05 µM [1, 3] is reported as 0%.

`CO[C@@H]1C(C)CC[C@]2(CO2)[C@H]1[C@@]1(C)O[C@@H]1CCC(C)C` (stereo partly shown) [Example 26] gave an inhibition at 0.05 µM [1, 4] of 0%, an inhibition at 0.05 µM [1, 5] of 0% and an inhibition at 0.05 µM [1, 3] of 0%.

Work on `CO[C@@H]1C(=O)CC[C@]2(CO2)[C@H]1C1(C)O[C@@H]1CC(=O)O` (stereo partly shown) [Example 55] yielded an inhibition at 0.05 µM [1, 3] of 0%.

`CO[C@@H]1C(=O)CC[C@]2(CO2)[C@H]1C1(C)O[C@@H]1CC(=O)NCc1ccccc1` (stereo partly shown) [Example 58] gave an inhibition at 0.05 µM [1, 3] of 0%.

`CCCC/C=C/C[C@H]1O[C@]1(C)[C@H]1[C@H](OC)[C@H](O)CC[C@]12CO2` [Example 24] showed an IC50 ([2]; cells printed in nM) of 10 to 100 nM, an inhibition at 0.05 µM [1, 4] of 0% and an inhibition at 0.05 µM [1, 5] of 0%. The inhibition at 0.05 µM [1, 3] was 0%.

For `CO[C@@H]1C(=O)CC[C@@](C)(O)[C@H]1[C@@]1(C)O[C@@H]1CCC(C)C` [Example 54, (2S,4R)-4-hydroxy-3-((2R,3R)-3-isopentyl-2-methyloxiran-2-yl)-2-methoxy-4-methylcyclohexanone], the inhibition at 0.05 µM [1, 4] was 0%, the inhibition at 0.05 µM [1, 5] was 0% and the inhibition at 0.05 µM [1, 3] was 0%.

`CO[C@@H]1[C@H](OC(=O)/C=C/C=C/C=C/C=C/C(=O)O)CC[C@]2(CO2)[C@H]1[C@@]1(C)O[C@@H]1CC=C(C)C` [Example 36] showed an IC50 ([2]; cells printed in nM) of less than 10 nM and an inhibition at 0.05 µM [1, 3] of 64%.

Work on `CO[C@@H]1C(=O)CC[C@]2(CO2)[C@H]1[C@@]1(C)O[C@@H]1CC=C(C)C` [Example 51, (3R,5S)-5-methoxy-4-((2R,3R)-2-methyl-3-(3-methylbut-2-enyl)oxiran-2-yl)-1-oxaspiro[2.5]octan-6-one] yielded an inhibition at 0.05 µM [1, 4] of 0%, an inhibition at 0.05 µM [1, 5] of 44% and an inhibition at 0.05 µM [1, 3] of 78%.

`CCOC(=O)C=C1CC[C@]2(CO2)[C@@H]([C@@]2(C)O[C@@H]2CC=C(C)C)[C@@H]1OC` [Example 37] gave an IC50 ([2]; cells printed in nM) of less than 10 nM and an inhibition at 0.05 µM [1, 3] of 96%.

For `CO[C@@H]1C(=O)C(C)C[C@]2(CO2)C1[C@@]1(C)O[C@@H]1CC=C(C)C` (stereo partly drawn) [Example 53, (3R,5S)-5-methoxy-7-methyl-4-((2R,3R)-2-methyl-3-(3-methylbut-2-enyl)oxiran-2-yl)-1-oxaspiro[2.5]octan-6-one], the inhibition at 0.05 µM [1, 4] was 0%, the inhibition at 0.05 µM [1, 5] was 0% and the inhibition at 0.05 µM [1, 3] was 28%.

Work on `CCOC(=O)CCCCC/C=C/C[C@H]1OC1(C)[C@H]1[C@H](OC)C(=O)CC[C@]12CO2` (stereo partly shown) [Example 59] yielded an IC50 ([2]; cells printed in nM) of 10 to 100 nM and an inhibition at 0.05 µM [1, 3] of 0%.

Work on `C=C1CC[C@]2(CO2)[C@@H]([C@@]2(C)O[C@@H]2C/C=C/CCCC)[C@@H]1OC` [Example 22] yielded an IC50 ([2]; in uM) greater than 1000 nM, an inhibition at 0.05 µM [1, 4] of 0% and an inhibition at 0.05 µM [1, 5] of 0%. For the same molecule, the inhibition at 0.05 µM [1, 3] was 0%.

For `CO[C@@H]1C(=O)CC[C@]2(CO2)[C@H]1C1(C)O[C@@H]1CCC(C)C` (stereo in doubt) [Example 52, (3R,5 S)-4-((2R,3R)-3-isopentyl-2-methyloxiran-2-yl)-5-methoxy-1-oxaspiro[2.5]octan-6-one], the inhibition at 0.05 µM [1, 4] was 0%, the inhibition at 0.05 µM [1, 5] was 0% and the inhibition at 0.05 µM [1, 3] was 17%.

With `CO[C@@H]1C(=CC=C(C)C)CC[C@]2(CO2)[C@H]1[C@@]1(C)O[C@@H]1CC=C(C)C` [Example 21] the IC50 ([2]; in uM) was greater than 1000 nM, the inhibition at 0.05 µM [1, 4] was 0% and the inhibition at 0.05 µM [1, 5] was 0%. The inhibition at 0.05 µM [1, 3] was 0%.

`CO[C@@H]1C(=O)C=C[C@]2(CO2)[C@H]1[C@@]1(C)O[C@@H]1CC=C(C)C` [Example 57, (3R,S)-7-methoxy-8-((2R,3R)-2-methyl-3-(3-methylbut-2-enyl)oxiran-2-yl)-1-oxaspiro[2.5]oct-4-en-6-one] gave an inhibition at 0.05 µM [1, 3] of 37%.
